# Article PMC8395767, “Worsening of the Toxic Effects of (±)Cis-4,4′-DMAR Following Its Co-Administration with (±)Trans-4,4′-DMAR: Neuro-Behavioural, Physiological, Immunohistochemical and Metabolic Studies in Mice” (International Journal of Molecular Sciences, 2021)
# Marks after values point to notes of the source that are not given here.
# What was measured:
# mice = assay: Spontaneous and stimulated aggressiveness (bites of a grey cloth); format: in vivo
# Method: The effects of (±)cis-4,4′-DMAR, (±)trans-4,4′-DMAR and their co-administration were investigated by a protocol widely used in studies of “safety pharmacology” for the preclinical characterization of new molecules in rodents. This protocol includes a series of observational behavioural tests carried out in a consecutive manner that monitor the animal responses up to 5 h after compound injections. In the present study, we reported the observation of physiological (sweating, salivation, core temperature) and neuro-behavioural (detection of psychomotor agitation, spontaneous and stimulated aggressiveness, convulsions) changes occurring in mice after injection of (±)cis-4,4′-DMAR, (±)trans-4,4′-DMAR and their co-administration. Before pharmacological treatment the mouse was placed on a square plate (30 cm× 30 cm) raised from the ground (20 cm) and left free to move on the plate for 10 min (habituation period). The animal was then injected with the vehicle, substances alone ((±)cis-4,4′-DMAR or (±)trans-4,4′-DMAR) or in cis + trans co-administration and placed on the plate. From this moment, the recording time of the physiological and neuro-behavioural responses started, and these were detected in 5-min sessions.
# After the first 5 min, the animal was removed from the plate; the body core temperature was then measured, and the aggression tests were performed. The 5-min observation period was repeated at 15–30–60–90–120–180–240–300. Psychomotor agitation in the mouse was not simply related to an increase in spontaneous locomotion itself, but by an “unusual hyperactivity” which was characterised by rapid and sudden horizontal displacements in all directions, sustained turning behaviour, involuntary falls from the high plate during the evaluation of the tests, stereotyped movements and rearing activity. Mouse sweating and salivation were reported only if present or not. The core temperature was determined using a probe (1 mm diameter) that was gently inserted after lubrication with liquid Vaseline into the rectum of the mouse (to about 2 cm) and left in position until the temperature stabilised (about 10 s). The probe was connected to a digital thermometer. Spontaneous aggressive response was measured based on the number of times a mouse bit a grey cloth put in front of its snout. During the test, each mouse was free to move within the cage. In the case of stimulated aggressiveness, each mouse was manually restrained and held in a supine position following which an object was brought near the mouth. For both spontaneous and stimulated aggressive behaviour tests, a grey cloth was placed in front of the nose of each mouse 10 consecutive times (score 0/10 not aggressive, score 10/10 very aggressive). Convulsions were defined as a loss of righting reflexes for at least 5 s, combined with the presence of body tremors and clonic or tonic limb movements. Deaths caused by 4-4’-DMAR injection occurring during the observation period (5 h) were also reported as frequency (%) and time of death (min). Experiments were conducted inside the LARP (Centralised Preclinical Research Laboratory, University of Ferrara, Ferrara, Italy) in a thermo-stated (temperature 20–22 °C, humidity about 45–55%) and light controlled (about 150 lux) room, in which there was a background noise of about 40 ± 4 dB. The experiments, conducted in blind by trained observers working together in pairs, were videotaped and eventually analysed off-line by a different trained operator. The experiments were performed between 8:30 a.m. and 2:00 p.m.
# Sweating and salivation were expressed as frequency (e.g., % of animals that developed symptoms); psychomotor agitation was expressed as frequency (% of animals) and duration (total time in mins). Core temperature values were expressed as the difference between control temperature (before injection) and temperature following drug administration (Δ°C). […]
# NOX-2 = assay: Immunohistochemistry, frontal cortex: NOX-2; format: in vivo, mice; settings: vs control
# From the text: Following the acute death or the sacrifice of the animals (after 5-h observation period by dislocation of the spine), brains were taken. These were fixed in 4% buffered formalin and then sampled and incorporated into the paraffin (Leica ASP300 processor, Histoline TEC2900 incorporator; Leica Microsystems Srl, Buccinasco, Milano, Italy). Subsequently, the cut (performed with the Leica HistoCore autocut microtome; Leica Microsystems Srl, Buccinasco, Milano, Italy) was designed to create sections with a thickness of 5 µm for each sample.
# On 5-µm-thick paraffined […] sections, we evaluated the expression of a panel of markers: heat shock proteins (HSP27, HSP70, HSP90), SMAC/DIABLO, NF-kB, iNOS, NOX-2, NT, 8-OHDG.
# We used a detection system composed of a biotinylated secondary antibody and HRP-conjugated streptavidin (4plus HRP Universal Detection, Biocare Medical). […] In the pictures (sections of the frontal cortex; Figure 3, Figure 4 and Figure 5) to evaluate the variation in the expression of markers (Smac, NOX2, iNOS, 8-OHdG, NT, HSP27, HSP70, HSP90) following treatments, the change in intensity of brown colour (staining of the immunohistochemical technique) in the control and treated tissue was measured. Quantification of Smac, NOX2, iNOS, 8-OHdG, NT, HSP27, HSP70 and HSP90 positive-stained areas was performed by the ImageJ software (imagej.nih.gov/ij/ Accessed date 12 May 2020). […]
# SERT = tested on: SERT; parameters: method as in PMID 25331619; settings: rat brain tissue, lower potency than (±)cis-4,4′-DMAR; cited from earlier work
# [1] = 10 mg/kg i.p., n=4 mice (animals of the urine excretion study)
Compound,Aggressiveness Stimulated Frequency % (n° of mice) (mice; [1]),Aggressiveness Stimulated Score (n° of bites) (mice; [1]),"Aggressiveness Stimulated Frequency % (n° of mice) (mice; 10 mg/kg i.p., n=6 mice)","Aggressiveness Stimulated Score (n° of bites) (mice; 10 mg/kg i.p., n=6 mice)","Aggressiveness Stimulated Frequency % (n° of mice) (mice; 30 mg/kg i.p., n=6 mice)","Aggressiveness Stimulated Score (n° of bites) (mice; 30 mg/kg i.p., n=6 mice)","Spontaneous aggressiveness (mice; mice, i.p., 60 mg/kg could not be tested)",Immunoreactivity of NOX-2 in the frontal cortex (NOX-2; 60 mg/kg),Immunoreactivity of NOX-2 in the frontal cortex (NOX-2; 10 and 30 mg/kg),Mode of action at SERT (SERT)
"Cc1ccc(C2OC(N)=NC2C)cc1 (stereo not drawn) [cis-4,4’-DMAR, 4-methyl-5-(4-methylphenyl)-4,5-dihydrooxazol-2-amine]",100% (4),5 ± 0.23 n° of bites,100% (6),6 ± 0.23 n° of bites,100% (6),10 ± 0.23 ^b n° of bites,not associated with increased levels,did not affect,reduced,–
"Cc1ccc(C2OC(N)=NC2C)cc1 (stereo not drawn) [trans-4,4’-DMAR, 4-methyl-5-(4-methylphenyl)-4,5-dihydrooxazol-2-amine]",–,–,–,–,–,–,–,–,–,uptake blocker
